Laboratory results published in PMC10636063, “Progesterone activation of β1-containing BK channels involves two binding sites” (Nature Communications, 2023).

Key:
[1] = test system: β1-β4 chimera (loop of β4 with β1 TMs); assay: Thermal unfolding (MST) of β1-β4 chimera; assay type: binding; conditions: 0.004 μM
From the text: (§1) BK channel-forming slo1 cDNA (cbv1 isoform; AY330293) was cloned from rat cerebral artery SM cells, and inserted into pcDNA3.1 vector as described. BK β1 cDNA (KCNMB1 product; NP_011452; FJ154955) were isolated from rat cerebral artery SM cells and cloned as described. β4 cDNA (KCNMB4; NP_055320; AY028605) were generously provided by Dr. Ligia Toro. CHO cells were transiently transfected with cbv1 ± β1-, or β4-carrying pcDNA3.1 using X-tremeGENE HP (Sigma-Aldrich). Mutations to β1/4 cDNAs were conducted by Genscript, with sequences being confirmed to be >99% identical to KCNMB1 product; NP_011452 or β4 KCNMB4; NP_055320; respectively. β1/4 and mutant constructs were flag-tagged (DYKDDDDK-tag) by Genscript services for subsequent immunoprecipitation and use in microscale thermophoresis studies.
(§2) Wt β1, wt β4 and mutant constructs were purified by immunoprecipitation using Dynabeads Protein G Kit (10007D by Invitrogen) and following the manufacturer’s instructions. […] The unfolding profile of a protein is a plot of its fluorescence signal against temperature. […] During the heating process, fluorescence is recorded at 330 and 350 nm. The resulting fluorescence ratio change is then analyzed for onset and inflection points. The temperature of onset and inflection is determined using built-in analysis function in Nanotemper PR.therm-control software. […]

[2] = target: T1, β1Y32V,W163I (double mutant) (Rattus norvegicus, UniProt P97678, W163I/Y32V); assay: Thermal unfolding (MST) of β1 double mutant; assay type: binding
T1 construct: FLAG (DYKDDDDK); made in house; host or cells: CHO cells, transient transfection, anti-flag immunoprecipitation
From the text: as §1, §2

MCA branches (C57BL/6J) = assay: EtOH-induced cerebrovascular constriction in vivo (cranial window); design: species or system mouse; conditions: 10 µM PROG + 50 mM EtOH infused
Description: Eight-12 week-old male and female C57BL/6J mice were anesthetized with a mixture of xylazine/ketamine (12/100 mg per kg) and kept anesthetized for the duration of the experiment with subsequent ketamine doses (50 mg/kg of weight) as needed. A catheter was inserted into the carotid artery so that the infusion went straight to the brain rather than towards the thoracic cavity. An area of the skull was cleared of tissue and thinned to expose the branching arteries originating from the MCA on the side the catheter was inserted, above the zygomatic arch, between the ear and eye of the skull[19],[34]. The exposed arteries branching out from the MCA were monitored using a Leica MC170 HD microscope with a mounted camera (Leica M125 C) connected to a computer monitor. Drugs were diluted to their final concentration in sodium saline (0.9% NaCl) and administered via catheter at 0.1 ml/25 g of weight. Cranial window images before and after drug administration were acquired every 60 seconds for subsequent analysis.

[3] = test system: de-endothelialized, pressurized MCA segments (C57BL/6 male); assay: EtOH-induced constriction of pressurized MCA in vitro; design: species or system mouse; conditions: 10 µM PROG, 10-75 mM EtOH
From the text: Eight-12 week-old C57BL/6J and KCNMB1^−/− on C57BL/6 background mice of both sexes were deeply anesthetized with isoflurane via inhalation in a tightly sealed jar. Resistance size MCAs (~100 μm in external diameter) were dissected out of the mouse brains after animal euthanasia with sharp scissors. For de-endothelialized records, the endothelium was removed by passing an air bubble into the vessel lumen for 90 s[30]. This method has been consistently used by our group and validated using endothelium-dependent versus endothelium-independent vasodilators[16],[26]. Arteries were cannulated as previously described by our group[26],[40]. MCAs were cut into 5 to 10 mm-long segments under a microscope (Nikon SMZ645). The segment was cannulated at each end, and the artery exterior was continuously perfused with physiologic sodium saline (PSS) of the following composition (mM): 119 NaCl, 4.7 KCl, 1.2 KH2PO4, 1.6 CaCl2, 1.2 MgSO4, 0.023 EDTA, 11 glucose, 24 NaHCO3, pH=7.4. PSS was continuously bubbled with an O2/CO2/N2 (21/5/74%) gas mixture and maintained at 35–37 °C. The artery external wall diameter was measured using the automatic edge-detection function of lonWizard software (lonOptix) via Sanyo VCB-3512T camera (Sanyo Electric Co.). Arteries were first incubated at an intravascular pressure of 10 mm Hg for 10 min. Then intravascular pressure was increased to 60 mmHg and held steady throughout the experiment to induce myogenic tone development and maintenance[19],[30],[51]. Each artery segment was exposed to PROG, PROG-oxime (in presence and absence of 1 µM paxilline) only once to avoid development of desensitization during repeated applications of PROG-containing solution. To determine arterial viability, arterial contractility was probed with a high KCl solution at the end of each experiment. The high KCl solution was composed of the following composition (mM): 63.7 NaCl, 60 KCl, 1.2 KH2PO4, 1.2 MgSO4, 0.023 EDTA, 11 glucose, 24 NaHCO3, 1.6 CaCl2, pH=7.4. Like PSS, the high-KCl solution was continuously bubbled with O2/CO2/N2 (21/5/74%) gas mixture and maintained at 35–37 °C.

T1 sequence (P97678 whole entry Y32V/W163I): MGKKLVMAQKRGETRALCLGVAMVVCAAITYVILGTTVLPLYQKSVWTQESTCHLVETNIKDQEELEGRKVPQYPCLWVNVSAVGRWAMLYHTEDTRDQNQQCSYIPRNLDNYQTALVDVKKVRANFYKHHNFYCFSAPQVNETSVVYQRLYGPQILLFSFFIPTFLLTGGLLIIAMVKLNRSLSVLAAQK

## CC(=O)[C@H]1CC[C@H]2[C@@H]3CCC4=CC(=O)CC[C@]4(C)[C@H]3CC[C@]12C [PROG, Progesterone]
[1]
  effect on thermal unfolding / binding: still bound and destabilized the protein structure
[2]; 4.1 μM
  effect on thermal unfolding / binding: not destabilized
[2]; low concentrations (subμM)
  effect on thermal unfolding / binding: still destabilized
MCA branches (C57BL/6J)
  effect on EtOH-induced cerebrovascular constriction: still protected against EtOH-induced cerebrovascular constriction
[3]
  effect on EtOH-induced vasoconstriction: blunted EtOH-induced vasoconstriction at all alcohol concentrations
